According to publication PMC11044963, “Probing the CRL4^DCAF12 interactions with MAGEA3 and CCT5 di-Glu C-terminal degrons” (PNAS Nexus, 2024):
pKd: −log10 of the molar value. “Also recorded” adds a separate entry of the source. Where no end group is shown, it is not given here.

How the values were obtained:
DCAF12-DDB1 = target: T1, DCAF12-DDB1 (Homo sapiens, UniProt Q16531+Q5T6F0); experiment: FP direct peptide binding, DDB1–DCAF12 complex; details: for Kd range, FP direct binding: DDB1–DCAF12, FITC-labeled peptide
T1 construct: Despite our attempts to express and purify the full-length (FL) DCAF12 in isolation; made in house; host or cells: Spodoptera frugiperda Sf9 (baculovirus co-expression)
Description: (§1) To further characterize DCAF12 binding to MAGEA3 and CCT5 degrons, we developed a fluorescence polarization (FP)-based peptide binding and displacement assay in vitro. We designed small N-terminal fluorescein isothiocyanate (FITC)-labeled peptides harboring 11 C-terminal residues of MAGEA3 ([…]) and nine from CCT5 ([…]), both carrying the known -EE degron.
(§2) DCAF12 constructs were subcloned from Mammalian Gene Collection (MGC) stock BC063823 into baculovirus expression vector pFBOH-MHL. For co-expression with DCAF12, DDB1 (MGC stock […]) and DDA1 (MGC stock BC000615) were subcloned into pFBOH-LIC vector lacking any protein tags. For testing DDB1-FL direct binding to peptides on FP assay, the protein was expressed using pFBOH-MHL vector with His-tag. All protein constructs were expressed in Spodoptera frugiperda (Sf9), as previously described ([37]).
(§3) FP-binding assays were performed using 20 mM Tris pH 7.5, 150 mM NaCl, 5% glycerol, 0.5 mM TCEP, and 0.01% Triton buffer. All tested proteins were titrated from an initial 4 µM highest concentration, followed by a factor two serial dilution. N-terminally labeled FITC peptides ([…] for MAGEA3, […] for CCT5, and […] for H3K9A) binding to proteins was tested at 20 nM final concentration. The assay was incubated for 45 min at room temperature, and plates were read using BioTek Synergy 4 (BioTek) plate reader. Prior to displacement assay, proteins at binding Kd concentration were mixed with FITC peptides at 20 nM final concentration. Displacement was evaluated by using a titration curve of unlabeled peptide, with 40 µM as the highest concentration. Buffer, incubation time, and reading conditions followed FP-binding protocol. All FP analyses were performed in triplicates and, at least, two independent experiments. All Kd and KDISP values were calculated using GraphPad Prism version 9.0.

DCAF12 R203A/R244A = experiment: NanoBRET with -EE degrons, second DCAF12 double arginine mutant; assay type: cell-based, human; details: HEK293T cells; HT-tagged DCAF12 mutant, NL-tagged degron; vs WT
Description: (§4) To further investigate the DCAF12 interaction with MAGEA3 and CCT5 in cells, we developed a NanoBRET assay, which measures the interaction of […] FL MEAGEA3/CCT5 or C-terminal peptide containing degron sequences ([…]/[…], respectively). When donor and acceptor proteins are in close proximity, the donor excites the acceptor, which then emits fluorescence, allowing for direct measurement of protein–protein interaction in cells.
(§5) Therefore, we used site-directed mutagenesis to generate two DCAF12 mutants in the central pocket of the WDR domain: R203A/R256A and R203A/R244A. DCAF12 wild-type (WT) and mutant interactions with MAGEA3 and CCT5 degron peptides were tested in a NanoBRET proximity-based assay (Fig. 2C).
(§6) HEK293T cells were plated in 96-well plates (2 × 10^4/well) and 4 h later transfected with 0.03 µg/well N-terminally HT-tagged DCAF12 (WT or mutants) or HT alone and 0.001 µg/well N-terminally NL-tagged CCT5 and MAGEA3 (FL or -EE degrons) using X-tremeGene HP transfection reagent (Roche), following the manufacturer's instructions. […] Four hours later, 10 µL of NanoBRET Nano-Glo Substrate solution (8 µL/mL Nano-Glo substrate (Promega) diluted in DMEM/F12 no phenol red, supplemented with 4% FBS, penicillin 100 U/mL, and streptomycin 100 µg/mL) was added, and the signal was read. […]

DCAF12 R203A/R256A = experiment: NanoBRET with -EE degrons, DCAF12 R203A/R256A mutant; assay type: cell-based, human; details: HEK293T cells; HT-tagged DCAF12 R203A/R256A, NL-tagged degron; vs WT
Description: as §4, §5, §6

DCAF12-DDB1-DDA1 = target: T2, DCAF12-DDB1-DDA1 (Homo sapiens, UniProt Q16531+Q5T6F0+Q9BW61); experiment: FP direct peptide binding, DDB1–DCAF12–DDA1 complex; details: for Kd range, FP direct binding: DDB1–DCAF12–DDA1, FITC-labeled peptide
T2 construct: Despite our attempts to express and purify the full-length (FL) DCAF12 in isolation; made in house; host or cells: Spodoptera frugiperda Sf9 (baculovirus co-expression)
Description: as §1, §2, §3

[1] = target: T3, biotinylated DCAF12 (Δ1–78) (Homo sapiens, UniProt Q5T6F0); experiment: SPR peptide binding, biotinylated DCAF12 (Δ1–78); details: unlabeled peptide, 15 °C, 1:1 Langmuir; for koff: dissociation phase 200 s; for koff / kon: HEPES pH 7.4, 2% DMSO, Fig. 1D, E; for kon: injected 120 s at 30 μL/min
T3 construct: DCAF12:79-453aa; His6 with linker ([…]) (C); made in house; host or cells: Sf9 cells (baculovirus, pFBD-BirA vector)
Experimental: For SPR experiments, DCAF12 Δ1–78 sequence was subcloned into pFBD-BirA vector, expressed in sf9 cells, and purified as described (Table S2). Biotinylated DCAF12 (Δ1–78) was immobilized to a level of ∼3,200 RU on a Biacore Series S streptavidin chip (Cytiva BR100531) using a Biacore 8K+ (Cytiva). Experiments were performed in a running buffer of 10 mM 4-(2-hydroxyethyl)-1-piperazineethanesulfonic acid (HEPES), pH 7.4, 150 mM NaCl (Cytiva BR-1006-70), 3 mM EDTA (Corning 46-034-CI), 0.005% P20 (Cytiva BR-1000-54), 5% Glycerol (Sigma G5516-1L), and 2% DMSO (Millipore Sigma MX1457-6). CCT5 and MAGEA3 peptides were injected over a period of 120 s at 30 μL/min followed by a dissociation phase of 200 s in an 8-point 2-fold dilution series with a top concentration of 1 μM. All steps were carried out at 15 °C. Reference and buffer-blank subtracted data were analyzed with the Biacore 8K Evaluation Software and fit to a 1:1 Langmuir model to obtain binding kinetics and KD values.

DCAF12 (Δ1–78) = target: T4, DCAF12 (Δ1–78) (Homo sapiens, UniProt Q5T6F0); experiment: FP direct peptide binding, DCAF12 (Δ1–78); details: FITC-labeled peptide
T4 construct: DCAF12:79-453aa; His6-TEV site ([…]) (N); made in house; host or cells: Spodoptera frugiperda Sf9 (baculovirus)
Description: as §1, §2
FP-binding assays were performed using 20 mM Tris pH 7.5, 150 mM NaCl, 5% glycerol, 0.5 mM TCEP, and 0.01% Triton buffer. […] The assay was incubated for 45 min at room temperature, and plates were read using BioTek Synergy 4 (BioTek) plate reader. […] Displacement was evaluated by using a titration curve of unlabeled peptide, with 40 µM as the highest concentration. Buffer, incubation time, and reading conditions followed FP-binding protocol. […] All Kd and KDISP values were calculated using GraphPad Prism version 9.0.

DCAF12 = experiment: NanoBRET with full-length proteins, DCAF12; assay type: cell-based, human; details: HEK293T cells; FL protein
Description: as §4
as §6, with “read. Donor emission at 450 nm (filter: 450 nm/BP 80 nm) and acceptor emission at 618 nm (filter: 610 nm/LP) were measured within 10 min of substrate addition using CLARIOstar microplate reader (Mandel).” for “read.”

[2] = tested on: DCAF12 mutants K91A, K108A, R203A, R256A, R344A; experiment: NanoBRET with full-length proteins, DCAF12 mutants; assay type: cell-based, human; details: HEK293T cells; FL protein or degron as stated; DCAF12 mutations vs WT
Description: Fig. 2. Conserved arginine and lysine residues near DCAF12 central channel participate in MAGEA3 binding in cells. A) DCAF12 electrostatic surface potential analysis showing negatively and positively charged residues colored in red and blue, respectively. On the left, DDB1 contacting surface of DCAF12. On the right, substrate contacting surface with positively charged residues—Arg203, Arg256, and Arg344—highlighted as sticks. Electrostatic potential is shown on a scale of −10 (red) kT/e to 10 (blue). B) Conservation analysis of DCAF12 showing high conservation of the same positively charged residues (represented as sticks) among homologous sequences. Residues were colored on a scale from variable/low conservation (dark teal) to high conservation (magenta). […]
as §6

Substance | effect of DCAF12 mutation on interaction with degron, NanoBRET (DCAF12 R203A/R244A) | effect of DCAF12 mutation on interaction with degron, NanoBRET (DCAF12 R203A/R256A) | Kd range, FP direct binding (DCAF12-DDB1-DDA1) | Kd range, FP direct binding (DCAF12-DDB1) | koff [1] [s⁻¹] | kon [1] [M⁻¹ s⁻¹] | Kd range, FP direct binding (DCAF12 (Δ1–78)) | also measured
ARTKQTARASTGGK [H3K9A, reference compound] | – | – | – | – | – | – | – | FP binding of control peptide lacking -EE (DCAF12-DDB1; FITC-labeled peptide 20 nM, protein up to 4 µM, Tris pH 7.5, 45 min, room temperature, DCAF12-DDB1 complex per Fig. S2): did not show any binding
IRKPGESEE [CCT5 degron] | significantly decreased | significantly decreased | – | – | – | – | – | –
LHEWVLREGEE [MAGEA3 degron] | significantly decreased | significantly decreased | – | – | – | – | – | –
LHEWVLREGEE [MAGEA3] | – | – | nanomolar range | nanomolar range | 0.06 | 370000 | nanomolar range | pKd (DCAF12-DDB1-DDA1; FITC-labeled peptide 20 nM, protein 2-fold dilution from 4 µM, 20 mM Tris pH 7.5, 150 mM NaCl, 5% glycerol, 0.5 mM TCEP, 0.01% Triton, 45 min, room temperature, triplicates, at least two independent experiments): 7.22
IRKPGESEE [CCT5] | – | – | nanomolar range | nanomolar range | 0.017 | 290000 | nanomolar range | pKd ([1]; 8-point 2-fold dilution from 1 μM, 10 mM HEPES pH 7.4, 150 mM NaCl, 3 mM EDTA, 0.005% P20, 5% glycerol, 2% DMSO, Table S1): 7.22
CCT5-FL: full-length T-complex protein 1 subunit epsilon protein | – | – | – | – | – | – | – | BRET signal over negative control (DCAF12): 3.6 fold; engagement with DCAF12 in cells, NanoBRET (DCAF12): low engagement; effect of DCAF12 mutations on interaction, NanoBRET [2]: no changes were observed; also recorded: little to no effect
